pEC50: −log10 of the molar value.
Experiments:
[1] = biological target: T1, CFTR in F508del/F508del primary CF hBE cells (Homo sapiens, UniProt P13569, DEL508-508); experiment: Ussing chamber electrophysiology assay of CFTR potentiation in F508del/F508del CF bronchial epithelial cells (27° C.); format: cell-based
T1 construct: Primary cystic fibrosis human bronchial epithelial (CF hBE) cells were expanded and cultured; endogenous in cells; host or cells: primary CF human bronchial epithelial cells, genotype F508del/F508del
Procedure, shortened: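 Well-differentiated primary CF hBE cells (>30 days air/liquid interface) in Ussing chambers, HEPES saline both sides, voltage clamped to zero. Amiloride 30 uM, forskolin 10 uM, four rising compound concentrations, then CFTRinh-172 20 uM added at 20-25 min intervals. Short-circuit current scaled to DMSO (0%) and a positive control potentiator maximum (100%).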

[2] = biological target: T2, recombinant F508del V470 CFTR in Fischer rat thyroid (FRT) cells (Homo sapiens, UniProt P13569, DEL508-508); experiment: FRT ion flux assay of F508del CFTR potentiation; format: cell-based; conditions: FRT cells expressing F508del V470 CFTR, forskolin 20 uM, 27° C. pre-incubation
T2 construct: expressed in transfected cells
Procedure, shortened: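 FRT cells co-expressing F508del V470 CFTR and halide-sensitive YFP, temperature-corrected at 27° C for 16-24 h, then treated 30 min with compound plus 20 uM forskolin. Iodide addition quenches YFP, read after ~21 s; ratio scaled to DMSO (0%) and positive control potentiator (100%).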

T2 sequence (P13569 with tags, fused parts or gaps DEL508-508): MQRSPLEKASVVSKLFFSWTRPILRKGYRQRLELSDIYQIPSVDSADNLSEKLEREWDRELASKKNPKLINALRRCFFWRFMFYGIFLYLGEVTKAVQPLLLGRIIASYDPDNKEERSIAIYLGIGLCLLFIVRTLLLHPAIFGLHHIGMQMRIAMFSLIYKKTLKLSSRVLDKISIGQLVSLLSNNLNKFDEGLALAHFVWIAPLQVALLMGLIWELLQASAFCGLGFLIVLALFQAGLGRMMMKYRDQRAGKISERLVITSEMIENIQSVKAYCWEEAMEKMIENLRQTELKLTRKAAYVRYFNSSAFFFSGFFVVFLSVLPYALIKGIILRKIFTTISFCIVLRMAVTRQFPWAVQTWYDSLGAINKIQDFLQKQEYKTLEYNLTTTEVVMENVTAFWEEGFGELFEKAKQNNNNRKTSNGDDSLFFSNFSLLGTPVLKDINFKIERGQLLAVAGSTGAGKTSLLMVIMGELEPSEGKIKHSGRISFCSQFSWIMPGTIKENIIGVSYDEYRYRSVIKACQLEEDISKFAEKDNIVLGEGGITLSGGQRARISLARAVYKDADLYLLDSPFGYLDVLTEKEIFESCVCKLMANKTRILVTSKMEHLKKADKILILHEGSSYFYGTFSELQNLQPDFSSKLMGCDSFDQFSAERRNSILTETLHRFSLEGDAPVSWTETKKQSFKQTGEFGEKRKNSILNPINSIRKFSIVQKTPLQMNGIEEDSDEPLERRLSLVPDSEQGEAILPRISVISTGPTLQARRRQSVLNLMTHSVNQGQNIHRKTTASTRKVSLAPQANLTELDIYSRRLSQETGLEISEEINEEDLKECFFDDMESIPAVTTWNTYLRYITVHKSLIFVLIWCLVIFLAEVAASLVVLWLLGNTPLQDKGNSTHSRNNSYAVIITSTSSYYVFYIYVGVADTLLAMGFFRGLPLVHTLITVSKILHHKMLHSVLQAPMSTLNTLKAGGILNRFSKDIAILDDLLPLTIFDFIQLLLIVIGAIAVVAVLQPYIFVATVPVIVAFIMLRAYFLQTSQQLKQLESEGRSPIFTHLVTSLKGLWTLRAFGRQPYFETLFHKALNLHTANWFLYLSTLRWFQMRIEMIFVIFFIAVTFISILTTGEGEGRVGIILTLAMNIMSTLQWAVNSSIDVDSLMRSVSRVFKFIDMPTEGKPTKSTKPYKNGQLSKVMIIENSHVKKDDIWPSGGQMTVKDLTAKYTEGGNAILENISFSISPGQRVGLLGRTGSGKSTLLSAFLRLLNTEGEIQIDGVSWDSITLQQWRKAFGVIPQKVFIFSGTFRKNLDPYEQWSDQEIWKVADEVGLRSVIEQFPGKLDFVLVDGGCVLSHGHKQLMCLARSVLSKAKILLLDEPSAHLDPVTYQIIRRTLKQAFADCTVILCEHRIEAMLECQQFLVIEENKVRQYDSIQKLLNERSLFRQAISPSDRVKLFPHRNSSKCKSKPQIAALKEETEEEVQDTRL
T1 sequence (P13569 with tags, fused parts or gaps DEL508-508): as above

Row | Structure (SMILES) | pEC50 [1] | pEC50 [2]
1 | Cn1ncc2cc(-c3cn(Cc4cn(-c5ccccc5F)nn4)c4ncnc(N)c34)ccc21 [Example 86, 7-{[1-(2-Fluorophenyl)-1H-1,2,3-triazol-4-yl]methyl}-5-(1-methyl-1H-indazol-5-yl)-7H-pyrrolo[2,3-d]pyrimidin-4-amine] | 6.18 | 6.27
2 | COc1ccc(-c2cn(C(C)c3cn(-c4ccccc4F)nn3)c3ncnc(N)c23)c(OC)c1 (centres unmarked) [Example 87, 5-(2,4-Dimethoxyphenyl)-7-{1-[1-(2-fluorophenyl)-1H-1,2,3-triazol-4-yl]ethyl}-7H-pyrrolo[2,3-d]pyrimidin-4-amine] | 7.26 | 6.99
3 | CSc1ccc(-c2cn(C(C)c3cn(-c4ccccc4F)nn3)c3ncnc(N)c23)cc1 (centres unmarked) [Example 88, 7-{1-[1-(2-Fluorophenyl)-1H-1,2,3-triazol-4-yl]ethyl}-5-[4-(methylsulfanyl)phenyl]-7H-pyrrolo[2,3-d]pyrimidin-4-amine] | 7.42 | 7.38
4 | CC(c1cn(-c2ccccc2F)nn1)n1cc(-c2ccc(OC(F)F)cc2)c2c(N)ncnc21 (centres unmarked) [Example 89, 5-[4-(Difluoromethoxy)phenyl]-7-{1-[1-(2-fluorophenyl)-1H-1,2,3-triazol-4-yl]ethyl}-7H-pyrrolo[2,3-d]pyrimidin-4-amine] | 7.44 | 7.13
5 | CSc1ccc(-c2cn(C(C)c3cn(-c4ccccc4F)nn3)c3ncnc(N)c23)c(F)c1 (centres unmarked) [Example 90, 5-[2-Fluoro-4-(methylsulfanyl)phenyl]-7-{1-[1-(2-fluorophenyl)-1H-1,2,3-triazol-4-yl]ethyl}-7H-pyrrolo[2,3-d]pyrimidin-4-amine] | 7.46 | 7.34
6 | CC(c1cn(-c2ccccc2F)nn1)n1cc(-c2ccccc2)c2c(N)ncnc21 (centres unmarked) [Example 94, 7-{1-[1-(2-Fluorophenyl)-1H-1,2,3-triazol-4-yl]ethyl}-5-phenyl-7H-pyrrolo[2,3-d]pyrimidin-4-amine] | 6.85 | 6.44
7 | CC(=O)c1ccc(-c2cn(C(C)c3cn(-c4ccccc4F)nn3)c3ncnc(N)c23)cc1 (centres unmarked) [Example 96, 1-[4-(4-Amino-7-{1-[1-(2-fluorophenyl)-1H-1,2,3-triazol-4-yl]ethyl}-7H-pyrrolo[2,3-d]pyrimidin-5-yl)phenyl]ethanone] | 6.88 | 7.01
8 | CC(c1cn(-c2ccccc2F)nn1)n1cc(-c2cccc(C(F)(F)F)c2)c2c(N)ncnc21 (centres unmarked) [Example 97, 7-{1-[1-(2-Fluorophenyl)-1H-1,2,3-triazol-4-yl]ethyl}-5-[3-(trifluoromethyl)phenyl]-7H-pyrrolo[2,3-d]pyrimidin-4-amine] | 6.79 | 6.64
9 | CC(c1cn(-c2ccccc2F)nn1)n1cc(-c2ccc(Cl)c(F)c2)c2c(N)ncnc21 (centres unmarked) [Example 98, 5-(4-Chloro-3-fluorophenyl)-7-{1-[1-(2-fluorophenyl)-1H-1,2,3-triazol-4-yl]ethyl}-7H-pyrrolo[2,3-d]pyrimidin-4-amine] | 7.55 | 7.39
10 | CC(c1cn(-c2ccccc2F)nn1)n1cc(-c2cc(F)cc(Cl)c2)c2c(N)ncnc21 (centres unmarked) [Example 99, 5-(3-Chloro-5-fluorophenyl)-7-{1-[1-(2-fluorophenyl)-1H-1,2,3-triazol-4-yl]ethyl}-7H-pyrrolo[2,3-d]pyrimidin-4-amine] | 7.44 | 7.30
11 | CC(c1cc(-c2ccccc2F)no1)n1cc(-c2ccc(N(C)C)cc2)c2c(N)ncnc21 (centres unmarked) [Example 105, 5-[4-(Dimethylamino)phenyl]-7-{1-[3-(2-fluorophenyl)-1,2-oxazol-5-yl]ethyl}-7H-pyrrolo[2,3-d]pyrimidin-4-amine] | 7.12 | 6.43
12 | CC(c1cc(-c2ccccc2F)no1)n1cc(-c2ccc(-c3ncns3)cc2)c2c(N)ncnc21 (centres unmarked) [Example 107, 7-{1-[3-(2-Fluorophenyl)-1,2-oxazol-5-yl]ethyl}-5-[4-(1,2,4-thiadiazol-5-yl)phenyl]-7H-pyrrolo[2,3-d]pyrimidin-4-amine] | 6.91 | 6.76
13 | COc1cnc(-c2cn(C(C)c3cc(-c4ccccc4F)no3)c3ncnc(N)c23)cn1 (centres unmarked) [Example 191, 7-{1-[3-(2-Fluorophenyl)-1,2-oxazol-5-yl]ethyl}-5-(5-methoxypyrazin-2-yl)-7H-pyrrolo[2,3-d]pyrimidin-4-amine] | 6.99 | 6.04
14 | N#Cc1ccc(-c2cn(Cc3cnc(-c4ccccc4F)[nH]3)c3ncnc(N)c23)cc1F [Example 192, 4-(4-Amino-7-{[2-(2-fluorophenyl)-1H-imidazol-5-yl]methyl}-7H-pyrrolo[2,3-d]pyrimidin-5-yl)-2-fluorobenzonitrile] | 6.93 | 7.08
15 | COc1ncccc1-c1cn(Cc2cnc(-c3ccccc3F)[nH]2)c2ncnc(N)c12 [Example 193, 7-{[2-(2-Fluorophenyl)-1H-imidazol-5-yl]methyl}-5-(2-methoxypyridin-3-yl)-7H-pyrrolo[2,3-d]pyrimidin-4-amine] | 6.93 | 7.36
16 | COc1nc(C)ccc1-c1cn(Cc2cn(-c3ccccc3F)nn2)c2ncnc(N)c12 [Example 194, 7-{[1-(2-Fluorophenyl)-1H-1,2,3-triazol-4-yl]methyl}-5-(2-methoxy-6-methylpyridin-3-yl)-7H-pyrrolo[2,3-d]pyrimidin-4-amine] | 7.91 | 7.54
17 | COc1ncc(F)cc1-c1cn(Cc2cn(-c3ccccc3F)nn2)c2ncnc(N)c12 [Example 195, 5-(5-Fluoro-2-methoxypyridin-3-yl)-7-{[1-(2-fluorophenyl)-1H-1,2,3-triazol-4-yl]methyl}-7H-pyrrolo[2,3-d]pyrimidin-4-amine] | 7.60 | 7.20
18 | Nc1ncnc2c1c(-c1cccnc1OC(F)F)cn2Cc1cn(-c2ccccc2F)nn1 [Example 196, 5-[2-(Difluoromethoxy)pyridin-3-yl]-7-{[1-(2-fluorophenyl)-1H-1,2,3-triazol-4-yl]methyl}-7H-pyrrolo[2,3-d]pyrimidin-4-amine] | 7.31 | 7.81
19 | Nc1ncnc2c1c(-c1cnco1)cn2Cc1cn(-c2ccccc2F)nn1 [Example 197, 7-{[1-(2-Fluorophenyl)-1H-1,2,3-triazol-4-yl]methyl}-5-(1,3-oxazol-5-yl)-7H-pyrrolo[2,3-d]pyrimidin-4-amine] | 6.09 | 6.59
20 | Nc1ncnc2c1c(C1CCCO1)cn2Cc1cn(-c2ccccc2F)nn1 (centres unmarked) [Example 198, 7-{[1-(2-Fluorophenyl)-1H-1,2,3-triazol-4-yl]methyl}-5-(tetrahydrofuran-2-yl)-7H-pyrrolo[2,3-d]pyrimidin-4-amine] | 5.67 | < 4.60
21 | COc1ncncc1-c1cn(Cc2cn(-c3ccccc3F)nn2)c2ncnc(N)c12 [Example 200, 7-{[1-(2-Fluorophenyl)-1H-1,2,3-triazol-4-yl]methyl}-5-(4-methoxypyrimidin-5-yl)-7H-pyrrolo[2,3-d]pyrimidin-4-amine] | 6.32 | 7.00
22 | COc1ncccc1-c1cn(Cc2cn(-c3ccccc3F)nn2)c2nc(C)nc(N)c12 [Example 202, 7-{[1-(2-Fluorophenyl)-1H-1,2,3-triazol-4-yl]methyl}-5-(2-methoxypyridin-3-yl)-2-methyl-7H-pyrrolo[2,3-d]pyrimidin-4-amine] | 6.10 | 6.04

Reference: patent US12612409B2, “Pyrrolopyrimidines as CFTR potentiators” (Cystic Fibrosis Foundation, priority 2016, dated 2026)
